The nature of one data set: in vivo. Conditions: C57/BL6, mouse, blood, po, 10 mg/kg.
For a further data set, the species on record is Mus musculus. Description: animal or person. The conditions noted are these: C57/BL6, po, 14 h, read-out: INH.
The nature of the next data set: in vitro. Conditions: dog, MDCK.
Data set [1] can be described thus: physchem. Conditions: octanol/water, pH 7.4.
Data set [2] has as its target T1, Leukotriene A-4 hydrolase (Homo sapiens, UniProt P09960).
T1 sequence (P09960 whole entry): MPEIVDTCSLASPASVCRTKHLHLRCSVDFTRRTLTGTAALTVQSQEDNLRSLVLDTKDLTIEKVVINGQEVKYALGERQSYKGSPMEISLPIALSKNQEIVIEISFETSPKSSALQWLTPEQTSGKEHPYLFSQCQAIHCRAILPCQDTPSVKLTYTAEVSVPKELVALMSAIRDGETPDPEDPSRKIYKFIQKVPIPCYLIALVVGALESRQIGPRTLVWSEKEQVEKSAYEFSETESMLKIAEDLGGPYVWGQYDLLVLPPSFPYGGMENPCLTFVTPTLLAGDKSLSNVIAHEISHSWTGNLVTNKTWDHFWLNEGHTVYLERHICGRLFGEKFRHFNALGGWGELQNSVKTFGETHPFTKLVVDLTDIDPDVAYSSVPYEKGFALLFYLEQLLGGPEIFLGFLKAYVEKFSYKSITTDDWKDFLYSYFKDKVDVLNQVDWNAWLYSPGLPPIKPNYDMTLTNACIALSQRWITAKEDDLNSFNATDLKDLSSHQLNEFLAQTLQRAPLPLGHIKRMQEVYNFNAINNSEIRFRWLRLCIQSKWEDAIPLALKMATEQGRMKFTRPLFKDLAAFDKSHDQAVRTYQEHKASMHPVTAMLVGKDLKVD
The data set is described as follows: Inhibition of LTA4H (unknown origin) using Arg-AMC as substrate preincubated with compound for 15 mins followed by substrate addition and measured after every 10 mins for 30 mins by fluorescence based analysis.

Data set [3] in a line: physchem. The conditions noted are these: buffer, pH 6.8.
Description: Solubility of the compound at pH 6.8 using amorphous form of sample
Data set [4] addresses T2, Voltage-gated inwardly rectifying potassium channel KCNH2 (Homo sapiens, UniProt Q12809). Description: Inhibition of hERG by manual patch clamp assay. The class given is toxicity.
Data set [5] has as its target T2, Voltage-gated inwardly rectifying potassium channel KCNH2. Description: Inhibition of hERG by microfluidic patch clamp assay. The class given is toxicity.

Converted amounts (≈) assume the structure as drawn.

T2 sequence (Q12809 whole entry): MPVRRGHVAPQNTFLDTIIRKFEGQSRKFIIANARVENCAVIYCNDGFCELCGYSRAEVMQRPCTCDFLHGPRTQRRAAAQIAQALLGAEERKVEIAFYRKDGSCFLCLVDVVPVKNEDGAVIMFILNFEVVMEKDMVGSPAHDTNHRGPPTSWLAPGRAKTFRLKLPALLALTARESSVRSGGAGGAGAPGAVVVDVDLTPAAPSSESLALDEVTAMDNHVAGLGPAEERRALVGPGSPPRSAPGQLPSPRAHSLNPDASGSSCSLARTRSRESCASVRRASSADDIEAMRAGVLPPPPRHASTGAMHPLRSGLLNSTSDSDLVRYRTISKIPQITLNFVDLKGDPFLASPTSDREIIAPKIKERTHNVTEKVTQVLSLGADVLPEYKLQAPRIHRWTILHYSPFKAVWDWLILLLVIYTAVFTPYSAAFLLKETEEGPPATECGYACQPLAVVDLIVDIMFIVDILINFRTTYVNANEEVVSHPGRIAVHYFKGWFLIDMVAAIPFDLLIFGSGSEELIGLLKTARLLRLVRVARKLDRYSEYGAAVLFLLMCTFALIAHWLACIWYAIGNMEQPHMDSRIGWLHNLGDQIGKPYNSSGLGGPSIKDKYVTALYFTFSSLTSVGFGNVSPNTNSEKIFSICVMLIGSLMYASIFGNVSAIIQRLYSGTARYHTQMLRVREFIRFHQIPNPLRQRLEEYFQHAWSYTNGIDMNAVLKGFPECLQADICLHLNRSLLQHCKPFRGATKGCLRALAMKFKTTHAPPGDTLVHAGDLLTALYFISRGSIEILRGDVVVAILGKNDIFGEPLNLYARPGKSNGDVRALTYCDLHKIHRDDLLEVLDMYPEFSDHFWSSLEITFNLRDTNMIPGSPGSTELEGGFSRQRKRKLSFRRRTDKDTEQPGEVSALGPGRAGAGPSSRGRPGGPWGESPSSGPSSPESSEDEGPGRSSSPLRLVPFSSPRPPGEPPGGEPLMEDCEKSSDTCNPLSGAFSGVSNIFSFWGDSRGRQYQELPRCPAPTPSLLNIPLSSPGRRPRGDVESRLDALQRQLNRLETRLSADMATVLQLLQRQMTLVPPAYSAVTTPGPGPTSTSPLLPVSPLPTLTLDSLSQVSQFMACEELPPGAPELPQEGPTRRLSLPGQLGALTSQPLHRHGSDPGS
Description for Mus musculus: Inhibition of calcium ionophore A23187-stimulated LTB4 release in C57/BL6 mouse model at 10 mg/kg, po bid measured after 14 hrs
Description for in vitro: Apparent permeability coefficient of the compound across apical to basolateral side in dog MDCKII-LE cells
Description for in vivo: Drug concentration in C57/BL6 mouse blood at 10 mg/kg, po bid measured after 14 hrs

`N[C@@H](CC(=O)O)Cn1nnc(-c2ccc(Oc3ncc(Cl)cc3F)cc2)n1` showed a concentration at 14 h in “in vivo” of 184 nM.
On to `c1ccc(Oc2ccc(-c3c[nH]cn3)cc2)cc1`, for which, in the data set filed under Mus musculus, the inhibition in vivo at 10 mg/kg turned out to be 93%. The same compound gave an apparent permeability from apical to basolateral (Papp A→B) in the data set “in vitro” of 56 ×10⁻⁶ cm/s. The compound also displayed a logD in “physchem [1]” of 3.7. The IC50 in data set [2] was 0.088 µM. Also, the concentration at 14 h in the data set “in vivo” came out at 218 nM. This compound also yielded a solubility in the data set “physchem [3]” of 121 µM (≈ 28.6 µg/mL).
For `c1cc(-c2ccc(Oc3ccc(CN4CCCC4)nc3)nc2)[nH]n1`, the half-maximal inhibitory concentration (IC50) in data set [4] is 19 µM; in data set [5], above 30 µM.
On to `c1cc(-c2ccc(Oc3ccc(CN4CCCCC4)nc3)nc2)[nH]n1`, for which the IC50 is 27 µM in data set [4] and above 30 µM in data set [5].
`CN(C)Cc1ccc(Oc2ccc(-c3ccn[nH]3)cn2)cn1`: the half-inhibitory concentration (IC50) in data set [5] is above 30 µM.

The record behind these values is ChEMBL document CHEMBL5518223, “Structure-Guided Elaboration of a Fragment-Like Hit into an Orally Efficacious Leukotriene A4 Hydrolase Inhibitor” (J Med Chem, 2024).
